# Assay results taken from PubChem BioAssay AID602234 (The Scripps Research Institute Molecular Screening Center, 2012).
# Calls of active or inactive are those of the source. No rule for the calls is given here.
# Test: NCOA3 reporter inhibition potency – cell-based, luminescence, counter-screen for SRC1 inhibitor project, dose response (AID 602234);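 also: HEK293 cells co-transfected with pGL4.31 reporter and pBIND-SRC3 fusion vector; potency for inhibition of reporter luminescence with Gossypol as full inhibition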
# Conditions: transfected HEK293 cells, counter-screen luciferase reporter
row,SMILES,IC50
1,O=C(Nc1nc(-c2ccccn2)cs1)c1cccc(S(=O)(=O)N2CCOCC2)c1,> 12 µM (inactive)
2,COc1ccc2[nH]c(=O)c(CN(CCN3CCCC3)C(=O)Nc3ccccc3Cl)cc2c1,8.7 µM
3,O=C(NC1CCCCC1)C(c1cccnc1)N(C(=O)CCl)c1cccc(Cl)c1 (stereo unspecified),0.503 µM
4,CCOC(=O)c1cccc2c1-c1ccccc1/C2=N/O,3.73 µM
5,Nc1nc(CCl)nc(Nc2cccc3ccccc23)n1,3.61 µM
6,Fc1cccc(CSc2nnc3ccc(-c4ccncc4)nn23)c1,> 35.8 µM (inactive)
7,CN1CCN(c2cccc3c2C(=O)c2ccccc2C3=O)CC1,> 35.9 µM (inactive)
8,COc1ccc(-c2cc(=O)oc3c(C)c(O)c(CN(C)C)cc23)cc1,12.1 µM (inactive)
9,CCN(C(=O)c1cc(S(=O)(=O)N2CCCCC2)c[nH]1)c1ccc(OC)cc1,8 µM
10,CNc1ncnc(Sc2nc(N)nc3nc[nH]c23)c1[N+](=O)[O-],2.81 µM
11,Cc1ccc(OCC(=O)c2cc(C)n(-c3ccccc3)c2C)c([N+](=O)[O-])n1,2.46 µM
12,OCCN(CCO)CC(O)COc1ccc(C23CC4CC(CC(C4)C2)C3)cc1 (stereo unspecified),12.1 µM (inactive)
13,Cc1cccc(C)c1-n1nnnc1C(c1cccs1)N1CCC2(CC1)C(=O)NCN2c1ccccc1 (stereo unspecified),18.9 µM (inactive)
14,O=C(Nc1cccc(C(F)(F)F)c1)Nc1nnc([C@@H]2C[C@H](O)[C@@H](CO)O2)s1,4.17 µM
15,CCOc1ccccc1-n1c(SCC(=O)Nc2ccccc2C(=O)O)nc2ccccc2c1=O,9.64 µM
16,Cc1ccc(/C=C2\SC(=S)N(CCCC(=O)NC3CCCC3)C2=O)cc1,1.58 µM
17,CCOc1ccc(/C=C2\SC(=S)N(CCC(=O)O)C2=O)cc1,2.12 µM
18,CCN1CCN(C(=S)c2ccc(-c3ccccc3)cc2)CC1,4.62 µM
19,O=C(Nc1nc(-c2ccccn2)cs1)c1cccc(-n2cnnn2)c1,21.7 µM (inactive)

row,SMILES,IC50
1,S=C(Nc1ccccc1)Nc1ccc(OCc2ccc(Cl)cc2Cl)cc1,1.39 µM
2,COc1cc(C2c3cc4c(cc3C(OC3OC5COC(c6cccs6)OC5C(O)C3O)C3COC(=O)C23)OCO4)cc(OC)c1O (stereo unspecified),0.0913 µM
3,Nc1ccn([C@@H]2O[C@H](CO)[C@@H](O)C2O)c(=O)n1 (stereo partly specified),7.53 µM
4,COc1ccc(-c2ncncc2-c2ccccc2)c(O)c1,4.24 µM
5,COc1cccc(/C=N/NC(=O)C(=O)Nc2ccccc2OC(F)(F)C(F)F)c1O,5.65 µM
6,Cc1noc(/C=C/c2ccco2)c1S(=O)(=O)N1CCC(C(=O)Nc2ccc(Cl)cn2)CC1,11.3 µM (inactive)
7,CC(C)n1c(-c2cccnc2)nc2cnccc21,5.26 µM
8,O=C(Nc1c(-c2ccccc2)[nH][nH]c1=O)c1cccc(C(F)(F)F)c1,> 35.8 µM (inactive)
9,Cc1c(C(=O)N/N=C/C(C)C)[nH]c2ccc([N+](=O)[O-])cc12,17 µM (inactive)
10,CN(CC(=O)Nc1ccc(Cl)c(C(F)(F)F)c1)C(=O)C1CC(=O)N(c2ccc3c(c2)OCCO3)C1 (stereo unspecified),7.04 µM
11,COc1cccc(C2=CC(=O)CC(C)(C)C2)c1,6.27 µM
12,c1cnc2ccc(-n3ccnc3)cc2c1,7.69 µM
13,COC(=O)N(NC(=O)C(O)(CCC(C)C)CCC(C)C)c1ccccc1,> 35.9 µM (inactive)
14,Cc1cccc(C)c1-c1ccc(CN2C(CC(C)C)C(=O)N(Cc3cn(CC4CCCCC4)nn3)CCS2(=O)=O)cc1 (stereo unspecified),8.2 µM
15,CCOc1cc(C(N)=O)cc(Br)c1OC,6.86 µM
16,NS(=O)(=O)c1ccc(Nc2nc(-c3cccnc3)cs2)cc1,6.23 µM
17,CC(=O)c1cccc(NC(=O)COc2cc3oc(=O)c(CC(C)O)c(C)c3cc2Cl)c1 (stereo unspecified),6.25 µM
18,COc1ccc(Cc2nnc(SCc3ccc([N+](=O)[O-])cc3)o2)cc1,5.53 µM
19,NC(=O)c1cc(Sc2ccccc2)nc2ccccc12,10.9 µM (inactive)

row,SMILES,IC50
1,Cc1nn(CC(=O)N2CCN(c3cccc(C(F)(F)F)c3)CC2)c(=O)c2cccn12,5.11 µM
2,c1ccc(-c2nnc(-c3ccccn3)nc2NC2CCCCC2)cc1,2.89 µM
3,CCCS(=O)(=O)Nc1ccc(Nc2c3ccccc3nc3ccccc23)c(OC)c1,1.01 µM
4,CC(C)(C)OC(=O)NCC(=O)Oc1cc2oc(=O)cc(-c3ccccc3)c2cc1Cl,11.5 µM (inactive)
5,Cc1ccc(NC(=O)CCC(=O)N/N=C/c2ccc(O)cc2O)cc1,13.5 µM (inactive)
6,Cc1ccc(O)c(C(=O)c2cnn(C(=O)COc3ccc(Cl)cc3)c2)c1,7.96 µM
7,c1cc2[nH]snc2c2nc(C3CC3)nc12,1.2 µM
8,CC(C)n1c(SCC(=O)Nc2nc3c(s2)CCCC3)nc2c1c(=O)n(C)c(=O)n2C,5.86 µM
9,Nc1ccc(-c2cc3ccccc3oc2=O)cc1,3.62 µM
10,O=C(CSc1nc(-c2cccs2)cc(C(F)(F)F)n1)Nc1cc(OCC(F)(F)C(F)F)cc([N+](=O)[O-])c1,> 35.9 µM (inactive)
11,CC(=O)c1cc2c(C)cc(=O)oc2cc1O,11.2 µM (inactive)
12,O=C(CCCc1nc(-c2ccccc2Cl)no1)NC1CCCC1,3.59 µM
13,c1nc2sc3c(c2c2nnnn12)CCCC3,9.84 µM
14,CCCCC(=O)Nc1cccn2ncnc12,10.9 µM (inactive)
15,O=C(CCl)NC(Cc1ccccc1)c1ccccc1 (stereo unspecified),6.42 µM
16,Cc1nc(N2CCC(C(N)=O)CC2)c2c(-c3cccs3)csc2n1,3.31 µM
17,Cc1cc(/C=C2\Cc3ccccc3C2=O)c(C)n1-c1ccccc1,8.76 µM
18,COC(=O)c1sc2cnccc2c1N,8.34 µM
